We go through 35 compounds from patent US7238697B2, “Pyridylpyrimidines for use as pesticides” (Bayer CropScience AG, priority 2001, dated 2007).

Like-named read-outs stand apart in the source and are kept apart here.

Holding throughout (type): in vivo
In assay [1] the test system is cotton aphid (Aphis gossypii). As to the kind of experiment: Aphis gossypii test (cotton leaves dipped). To be noted: 200 ppm. How it is done:
To produce a suitable preparation of active compound, 1 part by weight of active compound is mixed with the stated amounts of solvent and emulsifier, and the concentrate is diluted with emulsifier-containing water to the desired concentration. Cotton leaves (Gossypium hirsutum) which are heavily infested by the cotton aphid (Aphis gossypii) are treated by being dipped into the preparation of active compound of the desired concentration. After the desired period of time, the kill in % is determined. 100% means that all aphids have been killed; 0% means that none of the aphids have been killed.

Assay [2] deals with larvae of the mustard beetle (Phaedon cochleariae). The assay can be described thus: Phaedon larvae test (cabbage leaves dipped). How it is done:
To produce a suitable preparation of active compound, 1 part by weight of active compound is mixed with the stated amounts of solvent and emulsifier, and the concentrate is diluted with emulsifier-containing water to the desired concentration. Cabbage leaves (Brassica oleracea) are treated by being dipped into the preparation of active compound of the desired concentration and are populated with larvae of the mustard beetle (Phaedon cochleariae) while the leaves are still moist. After the desired period of time, the kill in % is determined. 100% means that all beetle larvae have been killed; 0% means that none of the beetle larvae have been killed.

The test system of assay [3] is Meloidogyne incognita. The assay can be described thus: Meloidogyne test (gall formation on lettuce roots). To be noted: 336 h, after 14 d, read-out: Kill rate in % after 14 d. As to the method: To produce a suitable preparation of active compound, 1 part by weight of active compound is mixed with the stated amounts of solvent and emulsifier, and the concentrate is diluted with water to the desired concentration. Vessels are filled with sand, solution of active compound, Meloidogyne incognita egg/larvae suspension and lettuce seeds. The lettuce seeds germinate and the plants develop. On the roots, galls are formed. After the desired period of time, the nematicidal action is determined in % by the gall formation. 100% means that no galls were found; 0% means that the number of galls on the treated plants corresponds to that of the untreated control.

For assay [4], the system named is caterpillars of the army worm (Spodoptera frugiperda). As to the kind of experiment: Spodoptera frugiperda test (cabbage leaves dipped). Conditions: 500 ppm, solvent 7 parts DMF, emulsifier 2 parts. As to the method:
To produce a suitable preparation of active compound, 1 part by weight of active compound is mixed with the stated amounts of solvent and emulsifier, and the concentrate is diluted with emulsifier-containing water to the desired concentration. Cabbage leaves (Brassica oleracea) are treated by being dipped into the preparation of active compound of the desired concentrated and are populated with caterpillars of the army worm (Spodoptera frugiperda) while the leaves are still moist. After the desired period of time, the kill in % is determined. 100% means that all caterpillars have been killed; 0% means that none of the caterpillars has been killed.

In assay [5] the test system is peach aphids (Myzus persicae). As to the kind of experiment: Myzus test (cabbage leaves dipped). To be noted: 144 h, after 6 d, read-out: Kill rate in % after 6 d; for pest or weed control at 500 ppm: solvent 7 parts DMF, emulsifier 2 parts (Table D-2). As to the method:
To produce a suitable preparation of active compound, 1 part by weight of active compound is mixed with the stated amounts of solvent and emulsifier, and the concentrate is diluted with emulsifier-containing water to the desired concentration. Cabbage leaves (Brassica oleracea) which are heavily infested by peach aphids (Myzus persicae) are treated by being dipped into the preparation of the active compound of the desired concentration. After the desired period of time, the kill in % is determined. 100% means that all aphids have been killed; 0% means that none of the aphids has been killed.

Assay [6] deals with thrips (Franklinella occidentalis). As to the kind of experiment: Franklinella test (cucumber plants sprayed). To be noted: 1000 ppm. How it is done:
To product a suitable preparation of active compound, 1 part by weight of active compound is mixed with the stated amounts of solvent and emulsifier, and the concentrate is diluted to the desired concentration.
Cucumber plants (Cucumis sativus) which are heavily infested by all stages of thrips (Franklinella occidentalis) are sprayed with a preparation of active compound of the desired concentration.
After the desired period of time, the effect in % is determined. 100% means that all thrips have been killed; 0% means that none of the thrips have been killed.

The mark [7] stands for this setting: 500 ppm, solvent 7 parts DMF, emulsifier 2 parts (Table E-2).
[8] abbreviates: solvent 7 parts DMF, emulsifier 2 parts (Table C-2).
Setting [9] is: solvent 30 parts DMF, emulsifier 1 part (Table C-1).
Setting [10] is: solvent 30 parts DMF, emulsifier 1 part (Table D-1).

Consider `CCCOC(=O)CSc1nccc(-c2ccccn2)n1` [drawing 399], for which the “Kill rate in % after 6 d” value in assay [1] came out at 85%.

On to `CCOC(=O)CSc1nccc(-c2ccc(Cl)cn2)n1` [drawing 443], for which, in assay [2] (setting [7]), the “Kill rate in % after 7 d” value is given as 100%.

Turning to `CCOC(=O)C(C)OC(=O)CSc1nccc(-c2ccccn2)n1` (centres unmarked) [drawing 409], the pest or weed control at 20 ppm in assay [3] (setting [8]) was determined as 80%.

With `CCOC(=O)CSc1nccc(-c2ccc(C(F)(F)F)cn2)n1` [drawing 446], the “Kill rate in % after 7 d” value in assay [4] worked out at 100%.

On to `CCOC(=O)CSc1nccc(-c2ccc(CC)cn2)n1` [drawing 411], for which, in assay [3] (setting [8]), the pest or weed control at 20 ppm stood at 90%.

In the case of `CC(C)(C)n1nnc(CSc2nccc(-c3ccccn3)n2)n1` [drawing 444], the “Kill rate in % after 7 d” value in assay [2] (setting [7]) is listed as 100%.

Take `CCOC(=O)CSc1nccc(-c2ccc(C(F)(F)F)cn2)n1` [drawing 413]: the pest or weed control at 20 ppm in assay [3] (setting [8]) is 100%.

As for `COC(=O)CSc1nccc(-c2ccccn2)n1` [drawing 398], the “Kill rate in % after 6 d” value in assay [1] was determined as 85%.

With `CCOC(=O)CSc1nc(C)cc(-c2ccccn2)n1` [drawing 445], in assay [4], the “Kill rate in % after 7 d” value came out at 100%.

As for `COC(=O)CSc1nc(-c2ccccn2)c2cc(Cl)ccc2n1` [drawing 406], in assay [3] (setting [9]), the pest or weed control at 20 ppm came to 98%.

As for `COC(=O)CSc1nc(-c2ccccc2)cc(-c2ccccn2)n1` [drawing 410], the pest or weed control at 20 ppm in assay [3] (setting [8]) turned out to be 100%.

Regarding `CC(C)(C)n1nnc(CSc2nccc(-c3ccccn3)n2)n1` [drawing 447], the “Kill rate in % after 7 d” value in assay [4] came out at 100%.

In the case of `C=CCOC(=O)CSc1nccc(-c2ccccn2)n1` [drawing 419], the pest or weed control at 1000 ppm in assay [5] (setting [10]) is 95%.

Regarding `COCN(C)C(=O)COC(=O)CSc1nccc(-c2ccccn2)n1` [drawing 430], the pest or weed control at 500 ppm in assay [5] worked out at 98%.

Take `CCC1(COC(=O)CSc2nccc(-c3ccccn3)n2)CCO1` (centres unmarked) [drawing 428]: the pest or weed control at 500 ppm in assay [5] was 98%.

In the case of `O=C(CSc1nccc(-c2ccccn2)n1)OC1CCCCC1` [drawing 400], the “Kill rate in % after 6 d” value in assay [1] was found to be 90%.

Consider `CCOC(=O)CSc1nccc(-c2ccc(C)cn2)n1` [drawing 412], for which, in assay [3] (setting [8]), the pest or weed control at 20 ppm is 90%.

Regarding `COC(=O)CC(=O)CSc1nccc(-c2ccccn2)n1` [drawing 427], in assay [5] (200 ppm, solvent 30 parts DMF, emulsifier 1 part (Table D-1)), the pest or weed control at 200 ppm was 95%.

As for `CCOC(=O)CSc1nccc(-c2ccccn2)n1` [drawing 402], the pest or weed control at 20 ppm in assay [3] (setting [9]) was determined as 90%.

Turning to `O=C(CSc1nccc(-c2ccccn2)n1)OC1CC(F)(F)C1(F)F` (centres unmarked) [drawing 435], in assay [5], the pest or weed control at 500 ppm turned out to be 100%.

On to `COC(=O)CSc1nccc(-c2ccccn2)n1` [drawing 401], for which the “Kill rate in % after 7 d” value in assay [6] was 99%.

Regarding `CCCOC(=O)CSc1nccc(-c2ccccn2)n1` [drawing 417], in assay [5] (setting [10]), the pest or weed control at 1000 ppm was determined as 95%.

As to `CC(C)OC(=O)CSc1nccc(-c2ccccn2)n1` [drawing 418], the pest or weed control at 1000 ppm in assay [5] (setting [10]) was found to be 100%.

Regarding `CC(C)=NNC(=O)CSc1nccc(-c2ccccn2)n1` [drawing 404], the pest or weed control at 20 ppm in assay [3] (setting [9]) is 98%.

Regarding `COC(=O)CCCSc1nccc(-c2ccccn2)n1` [drawing 423], the pest or weed control at 1000 ppm in assay [5] (setting [10]) turned out to be 100%.

Take `COC(=O)CCCSc1nccc(-c2ccccn2)n1` [drawing 405]: the pest or weed control at 20 ppm in assay [3] (setting [9]) was determined as 90%.

As to `O=C(CSc1nccc(-c2ccccn2)n1)OCC(F)=C(Cl)Cl` [drawing 431], in assay [5], the pest or weed control at 500 ppm was 100%.

With `NC(=O)CSc1nccc(-c2ccccn2)n1` [drawing 422], the pest or weed control at 1000 ppm in assay [5] (setting [10]) was 95%.

In the case of `O=C(CSc1nccc(-c2ccccn2)n1)N/N=C/c1ccc([N+](=O)[O-])cc1` [drawing 441], the “Kill rate in % after 7 d” value in assay [2] (1000 ppm, solvent 30 parts DMF, emulsifier 1 part (Table E-1)) was found to be 100%.

As to `COCCOC(=O)CSc1nccc(-c2ccccn2)n1` [drawing 403], the pest or weed control at 20 ppm in assay [3] (setting [9]) came to 90%.

In the case of `CCOC(=O)/C=C/CSc1nccc(-c2ccccn2)n1` [drawing 408], in assay [3] (setting [9]), the pest or weed control at 20 ppm stood at 100%.

Take `COC(=O)CSc1nc(-c2ccccn2)cc(-c2ccccn2)n1` [drawing 407]: the pest or weed control at 20 ppm in assay [3] (setting [9]) stood at 95%.

Consider `CC(C)(C)n1nnc(CSc2nccc(-c3ccccn3)n2)n1` [drawing 414], for which the pest or weed control at 20 ppm in assay [3] (setting [8]) worked out at 90%.

As for `NC(=O)CCSc1nccc(-c2ccccn2)n1` [drawing 437], in assay [5], the pest or weed control at 500 ppm was 80%.

For the compound `CCOC(=O)CSc1nccc(-c2ccc(C(F)(F)F)cn2)n1` [drawing 442], the “Kill rate in % after 7 d” value in assay [2] (setting [7]) is given as 100%.
